Test results from PMC10762078, “Role of UPF1-LIN28A interaction during early differentiation of pluripotent stem cells” (Nature Communications, 2024).

Experiments:
[1] = tested on: hPSCs; assay: RT-qPCR of pluripotency and germ-layer markers during differentiation with CPP-peptides (Supplementary Fig. 7b-e); assay type: cell-based, human; conditions: for CXCR4 (RT-qPCR) / FOXA1 (RT-qPCR) / GATA4 (RT-qPCR) / SOX17 (RT-qPCR): Fig. s7e; for BMP2 mRNA level (RT-qPCR) / BMP4 mRNA level (RT-qPCR) / CDH2 mRNA level (RT-qPCR) / CXCR4 mRNA level (RT-qPCR) / SNAI1 mRNA level (RT-qPCR) / TBXT mRNA level (RT-qPCR): Fig. s7d
Protocol: (§1) For CPP-conjugated peptide delivery, HeLa, 293T, and PA-1 cells were incubated with CPP-conjugated peptides or CPP-FITC at 2 μM in DMEM with 10% FBS for 12 h a day before cell harvest. hPSCs were treated with CPP-conjugated peptides at 10 μM in mTeSR Plus Medium, and the peptide-containing medium was changed every day over 10 days. The ROCK inhibitor (Tocris Bioscience, Y-27632) treated-hPSCs were dissociated into single cells using Accutase (Merck, SCR005) and differentiated into ectoderm, mesoderm, and endoderm using the STEMdiff Trilineage Differentiation Kit ([…] Technologies, 05230) following the manufacturer’s protocol. Differentiated cells treated with CPP-conjugated peptides were analysed at 0, 3, and 5 days for ectoderm and endoderm, and at 0, 3, and 4 days for mesoderm. […]
(§2) cDNA was synthesised using RevertAid Reverse Transcriptase (Thermo Fisher Scientific, EP0441) with synthesised random hexamer (Macrogen) for total RNA or stem-loop primers for miRNA. For RT-qPCR reactions, the SensiFAST SYBR No-ROX kit (Meridian Bioscience) was used according to the manufacturer’s protocol. All data analysis and visualisation were conducted using R 3.6.1 [www.r-project.org] or GraphPad Prism 10. RT primers for miRNA and RT-qPCR primer sequences are provided in Supplementary Data 6. […]
FPKM of each gene was presented f r om RNA-seq analysis. b–e hPSCs wer e treated with the indicated peptide during each germ la ye r differentiation. […]
An unpaired Student’s t-test was used for a–e. Data are presented as mean values ± SEM. All statistical test us ed wer e two-s ided. T he m inim um number of independent biological replicate experim ents was a–f n = 3. T he experiments wer e conducted three tim es, each iteration producing consistent results.

[2] = tested on: CHA15 cells; assay: RT-qPCR of indicated transcripts (NMD targets, pluripotency markers) in CPP-peptide-treated CHA15 cells (Supplementary Fig. 6d); assay type: cell-based, human; conditions: Fig. s6d
Protocol: as §1, §2
Scale bars, 100 μm . d (Corresponding to Fig. 6d) RT -qPCR was perform ed to evaluate the level of indicated transcripts upon the indicated peptide treatm ent in CHA15 cells. e T ranscriptom e analysis was perf orm ed using signif icantly changed transcripts (p < 0.05) f rom siLIN28A or siControl in the indicated CPP-peptide treated CHA15 cells. […]
5p and m iR-16- 5p was shown as CDF graphs. T he relative level of m RNA was norm alised to that of U6 snRNA in (c, d, and f). K–S tests were used for e and f. Unpaired Student’s t-test was used for c , d, and f . * p < 0.05, ** p < 0.01, *** p < 0.001. Exact p -values were provided in Source data. Data are presented as m ean values ± SEM. All statistical test used were two- sided. T he m inim um num ber of independent biological replicate experim ents was a and e n = 2, b–d and f n = 3. T he experim ents were conducted three tim es, each iteration producing consistent results.

[3] = unpaired t test, two-tailed, df=4

## N-MPELQKLQQLKDE-C [P2, peptide derived from the UPF1 (419–700) domain]
[1]; Day 0, replicate 1
  CXCR4 (RT-qPCR): 1.088
  FOXA1 (RT-qPCR): 1.247
  BMP2 mRNA level (RT-qPCR): 0.8054
  BMP4 mRNA level (RT-qPCR): 1.545
  CDH2 mRNA level (RT-qPCR): 1.016
  CXCR4 mRNA level (RT-qPCR): 0.9995
  SNAI1 mRNA level (RT-qPCR): 1.4406
  TBXT mRNA level (RT-qPCR): 1.3
  GATA4 (RT-qPCR): 0.7242
  SOX17 (RT-qPCR): 1.264
[1]; Day 0, replicate 2
  CXCR4 (RT-qPCR): 0.7848
  FOXA1 (RT-qPCR): 1.413
  BMP2 mRNA level (RT-qPCR): 1.199
  BMP4 mRNA level (RT-qPCR): 0.6508
  CDH2 mRNA level (RT-qPCR): 0.7569
  CXCR4 mRNA level (RT-qPCR): 1.121
  SNAI1 mRNA level (RT-qPCR): 0.9418
  TBXT mRNA level (RT-qPCR): 0.8652
  GATA4 (RT-qPCR): 1.3517
  SOX17 (RT-qPCR): 0.8709
[1]; Day 0, replicate 3
  CXCR4 (RT-qPCR): 1.127
  FOXA1 (RT-qPCR): 0.3396
  BMP2 mRNA level (RT-qPCR): 0.9954
  BMP4 mRNA level (RT-qPCR): 0.8046
  CDH2 mRNA level (RT-qPCR): 1.227
  CXCR4 mRNA level (RT-qPCR): 0.8798
  SNAI1 mRNA level (RT-qPCR): 0.6176
  TBXT mRNA level (RT-qPCR): 0.8351
  GATA4 (RT-qPCR): 0.9241
  SOX17 (RT-qPCR): 0.8647
[1]; Day 3, replicate 1
  CXCR4 (RT-qPCR): 897.043
  FOXA1 (RT-qPCR): 120.605
  BMP2 mRNA level (RT-qPCR): 1.083
  BMP4 mRNA level (RT-qPCR): 30.6184
  CDH2 mRNA level (RT-qPCR): 23.3268
  CXCR4 mRNA level (RT-qPCR): 950.283
  SNAI1 mRNA level (RT-qPCR): 22.3091
  TBXT mRNA level (RT-qPCR): 6339.58
  GATA4 (RT-qPCR): 32.2036
  SOX17 (RT-qPCR): 1792.04
[1]; Day 3, replicate 2
  CXCR4 (RT-qPCR): 593.555
  FOXA1 (RT-qPCR): 127.453
  BMP2 mRNA level (RT-qPCR): 0.8465
  BMP4 mRNA level (RT-qPCR): 25.9141
  CDH2 mRNA level (RT-qPCR): 19.1392
  CXCR4 mRNA level (RT-qPCR): 710.257
  SNAI1 mRNA level (RT-qPCR): 18.7714
  TBXT mRNA level (RT-qPCR): 5442.29
  GATA4 (RT-qPCR): 43.7097
  SOX17 (RT-qPCR): 907.999
[1]; Day 3, replicate 3
  CXCR4 (RT-qPCR): 261.141
  FOXA1 (RT-qPCR): 128.785
  BMP2 mRNA level (RT-qPCR): 1.108
  BMP4 mRNA level (RT-qPCR): 28.7876
  CDH2 mRNA level (RT-qPCR): 24.2422
  CXCR4 mRNA level (RT-qPCR): 582.163
  SNAI1 mRNA level (RT-qPCR): 15.4609
  TBXT mRNA level (RT-qPCR): 8084.66
  GATA4 (RT-qPCR): 38.0896
  SOX17 (RT-qPCR): 1484.43
[1]; Day 5, replicate 1
  CXCR4 (RT-qPCR): 674.407
  FOXA1 (RT-qPCR): 296.789
  GATA4 (RT-qPCR): 51.4498
  SOX17 (RT-qPCR): 1721.02
[1]; Day 5, replicate 2
  CXCR4 (RT-qPCR): 690.257
  FOXA1 (RT-qPCR): 436.764
  GATA4 (RT-qPCR): 54.8514
  SOX17 (RT-qPCR): 1190.77
[1]; Day 5, replicate 3
  CXCR4 (RT-qPCR): 509.637
  FOXA1 (RT-qPCR): 611.507
  GATA4 (RT-qPCR): 109.794
  SOX17 (RT-qPCR): 1778.6
[1]; Day 4, replicate 1
  BMP2 mRNA level (RT-qPCR): 0.2114
  BMP4 mRNA level (RT-qPCR): 7.214
  CDH2 mRNA level (RT-qPCR): 11.5611
  CXCR4 mRNA level (RT-qPCR): 685.489
  SNAI1 mRNA level (RT-qPCR): 15.012
  TBXT mRNA level (RT-qPCR): 2940.28
[1]; Day 4, replicate 2
  BMP2 mRNA level (RT-qPCR): 0.2729
  BMP4 mRNA level (RT-qPCR): 9.74
  CDH2 mRNA level (RT-qPCR): 14.1794
  CXCR4 mRNA level (RT-qPCR): 388.959
  SNAI1 mRNA level (RT-qPCR): 19.2435
  TBXT mRNA level (RT-qPCR): 3606.85
[1]; Day 4, replicate 3
  BMP2 mRNA level (RT-qPCR): 0.3615
  BMP4 mRNA level (RT-qPCR): 11.782
  CDH2 mRNA level (RT-qPCR): 17.5421
  CXCR4 mRNA level (RT-qPCR): 349.009
  SNAI1 mRNA level (RT-qPCR): 14.5806
  TBXT mRNA level (RT-qPCR): 4470.07
[2]; mean of 3 replicates
  NNAT mRNA level, mean: 0.9363
  SERPINB9 mRNA level, mean: 0.9791
[2]; [3]
  FRZB, difference between means ± SEM vs. P1: -0.02698 ± 0.06622
  GLI2, difference between means ± SEM vs. P1: -0.05239 ± 0.08994
  MAPK7, difference between means ± SEM vs. P1: 0.03902 ± 0.06368
  NNAT, difference between means ± SEM vs. P1: -0.06363 ± 0.1386
  PDZD4, difference between means ± SEM vs. P1: 0.05466 ± 0.04504
  SERPINB9, difference between means ± SEM vs. P1: -0.02067 ± 0.08291
  SIX3, difference between means ± SEM vs. P1: 0.1242 ± 0.09936
  SLC7A5, difference between means ± SEM vs. P1: 0.1166 ± 0.05272
  SNAP25, difference between means ± SEM vs. P1: 0.01594 ± 0.05751
  SOX2, difference between means ± SEM vs. P1: -0.1171 ± 0.06917
  TRMT61A, difference between means ± SEM vs. P1: 0.0576 ± 0.08417
  WLS, difference between means ± SEM vs. P1: -0.1429 ± 0.08376
